The test system of assay [1] is Pseudomonas aeruginosa ATCC27853. Kind of assay: Broth microdilution MIC/MMC. In kind it is cell-based. The conditions noted are these: for MBC / MMC/MIC: Pseudomonas aeruginosa ATCC27853; for MIC: Pseudomonas aeruginosa ATCC27853, 24 h, 37°C, read-out: MIC. The protocol:
(§1) The antimicrobial activity was performed against five bacterial and two fungal species. The selected microorganisms were the Gram-positive (Staphylococcus aureus ATCC25923, methicillin-resistant Staphylococcus aureus 03 (MRSA03), and methicillin-resistant Staphylococcus aureus 04 (MRSA04)) and Gram-negative (Pseudomonas aeruginosa ATCC27853 and Escherichia coli S2(1)) bacteria and yeast strains of Candida albicans ATCC10231 and Cryptococcus neoformans H99. These microorganisms were taken from our laboratory collection. The fungal and bacterial strains were conserved on Sabouraud Dextrose Agar (SDA, Conda, Madrid, Spain) and nutrient agar (NA, Conda) slants, respectively.
(§2) The antimicrobial activity was investigated by determining the minimum inhibitory concentrations (MICs), minimum bactericidal concentrations (MBC), and minimum fungicidal concentrations (MFCs). MICs of extracts/compounds were monitored using the broth microdilution method. Dimethyl sulfoxide (DMSO, Fisher Chemicals) was used to dissolve the test sample to produce a stock solution that was twofold serially diluted in Mueller-Hinton broth (MHB) for bacteria and Sabouraud Dextrose Broth (SDB) for fungi to obtain a concentration range of 4096 to 0.25 μg/mL. One hundred microliters of each concentration was introduced into a well (96-well microplate) containing 90 μL of SDB or MHB and 10 μL of inoculum (at 1 × 10^6 CFU/mL for bacteria and 1 × 10^5 spores/mL for yeasts) which were added to obtain a final concentration range of 2048 to 0.125 μg/mL. Plates were covered and incubated on the shaker at 37°C, 30°C, and 30°C during 24 h, 48 h, and 72 h for bacteria, Candida albicans, and Cryptococcus neoformans, respectively. The MICs were visually assessed after the incubation period and were considered the lowest sample concentration that inhibits the growth or the visual growth of the organism.
(§3) The positive controls were oxacillin (Sigma-Aldrich, Steinheim, Germany) for bacteria and nystatin (Sigma-Aldrich, Steinheim, Germany) for yeasts, and the negative control was broth with 20 μL of DMSO. The assay was carried out in triplicate.

Assay [2] has as its system Candida albicans ATCC10231. Kind of assay: Broth microdilution MIC/MMC. In kind it is cell-based. The conditions noted are these: for MIC: Candida albicans ATCC10231, 48 h, 30°C. The protocol:
as §1, §2, §3
(In general: Broth dilution looks for growth in wells or tubes with falling amounts of substance.)

Assay [3] has as its system Cryptococcus neoformans H99. The assay can be described thus: Broth microdilution MIC/MMC. In kind it is cell-based. Conditions: for MIC: Cryptococcus neoformans H99, 72 h, 30°C. The protocol: as §1, §2, §3
The test system of assay [4] is Staphylococcus aureus ATCC25923. Kind of assay: Broth microdilution MIC/MMC. The format is cell-based. Conditions: for MBC / MMC/MIC: Staphylococcus aureus ATCC25923; for MIC: Staphylococcus aureus ATCC25923, 24 h, 37°C, read-out: MIC. The protocol:
as §1, §2, §3

Assay [5] concerns methicillin-resistant Staphylococcus aureus 03 (MRSA03). Kind of assay: Broth microdilution MIC/MMC. The conditions noted are these: for MBC / MIC: Staphylococcus aureus; for MIC: MRSA03, 24 h, 37°C, read-out: MIC. The format is cell-based. As for the experimental part:
as §1, §2, §3

For assay [6], the system named is methicillin-resistant Staphylococcus aureus 04 (MRSA04). Kind of assay: Broth microdilution MIC/MMC. In kind it is cell-based. Conditions: for MBC / MIC: Staphylococcus aureus; for MIC: MRSA04, 24 h, 37°C, read-out: MIC. The protocol: as §1, §2, §3
The subject of assay [7] is Escherichia coli S2(1). The assay can be described thus: Broth microdilution MIC/MMC. The conditions noted are these: for MIC: 24 h, 37°C, read-out: MIC. The format is cell-based. The protocol: as §1, §2, §3
Assay [8] is described as follows: DPPH free radical scavenging assay. Conditions: for DPPH free radical scavenging activity (EC50): mean ± SD. As for the experimental part:
The free radical scavenging activity of extracts and compounds was evaluated according to the described method. The EC50 (μg/mL), which is the amount of sample necessary to inhibit by 50% the absorbance of free radical DPPH, was calculated. Vitamin C was used as a standard control. All the analyses were carried out in triplicate and repeated three times.
On the technique in general: DPPH is a stable violet radical that fades when it is reduced.

Assay [9] in a line: Gallic acid equivalent antioxidant capacity (GEAC) assay. Conditions: for Gallic acid equivalent antioxidant capacity (GEAC): ABTS radical, 420 nm, 240 s, mean ± SD. As for the experimental part: The GEAC test was performed as described previously with some slight modifications. The laccase was purified from Sclerotinia sclerotiorum according to the described protocol. 20 μL of laccase (1 mM stock solution), 20 μL of test sample, 10 μL of ABTS (2,2′-azino-bis(3-ethylbenzothiazoline-6-sulfonic acid) (74 mM stock solution), and 950 μL of acetate buffer (pH = 5.0, 100 mM) were added in a quartz cuvette. The concentrations of the samples in the assay mixture were 800, 400, 200, 100, and 10 μg/mL for the extracts and 200, 100, 50, 25, and 12.5 μg/mL for the isolated compounds. The content of the generated ABTS^●+ radical was measured at 420 nm after 240 s reaction time and was converted to gallic acid equivalents by the use of a calibration curve (Pearson's correlation coefficient: r = 0.998) constructed with 0, 4, 10, 14, 28, 56, and 84 μM gallic acid standards rather than Trolox. Experiments were done in triplicate and repeated three times with similar results.

Assay [10] concerns tested bacteria and yeasts. The assay can be described thus: Broth microdilution MIC/MMC, summary over all strains. In kind it is cell-based. The conditions noted are these: for antimicrobial activity class of pure compounds by cutoff points: against specific microorganism, cutoff points of ref 33; for MIC: read-out: MIC (range over the tested microorganisms). The protocol: as §1, §2, §3

Converted amounts (≈) assume the structure as drawn. Where two headings read alike, the source gives them in different places. Marks after values point to notes of the source that are not given here.

As a reminder, the MBC is the smallest concentration meeting the test's criterion for killing. Low values mean greater bactericidal potency, high ones weaker bactericidal potency. As a reminder, the MIC is the lowest concentration found to suppress growth. `OC[C@@H](O)[C@@H](O)[C@H](O)[C@H](O)CO` [compound 9, D-mannitol]: the MBC in assay [1], in [4], in assay [5] (MRSA03), in [6] (MRSA04) and in assay [7] was above 256 µg/mL in each case. Moreover, the minimal inhibitory concentration (MIC) is 256 µg/mL (≈ 1410 µM) in assay [1]; above 256 µg/mL in assay [2] (read-out: MIC); 256 µg/mL (≈ 1410 µM) in assay [3] (read-out: MIC); 128 µg/mL (≈ 703 µM) in assay [4]; above 256 µg/mL in assay [5]; above 256 µg/mL in [6]. Further, the minimal inhibitory concentration (MIC) in assay [7] is 128 µg/mL (≈ 703 µM); in assay [10] it was at least 128 µg/mL. In addition, the MFC in [2] (Candida albicans ATCC10231) and in assay [3] (Cryptococcus neoformans H99) was above 256 µg/mL throughout. The “activity in DPPH assay” value in assay [8] was “inactive”. Also, the “activity in TEAC assay” value in assay [9] is “inactive”. For the same compound, in assay [10], the “antimicrobial activity class of pure compounds by cutoff points” value (“antimicrobial activity class” below) is recorded as “low/not active”. Besides, in assay [10] (against the tested microorganisms), the “antimicrobial activity” value is “low activity”.

As for `O=c1cc(-c2ccc(O[C@@H]3O[C@H](CO)[C@@H](O)[C@H](O)[C@H]3O)c(O)c2)oc2cc(O)cc(O)c12` [compound 4, luteolin-4′-O-β-D-glucopyranoside], the MBC in [1] amounted to 128 µg/mL (≈ 285 µM); in [4], 64 µg/mL (≈ 143 µM); in assay [5] (MRSA03), 128 µg/mL (≈ 285 µM); in [6] (MRSA04), 128 µg/mL (≈ 285 µM); in [7], 32 µg/mL (≈ 71.4 µM). In addition, the MMC/MIC turned out to be 2 in assay [1]; 1 in [2] (Candida albicans ATCC10231); 1 in assay [3] (Cryptococcus neoformans H99); 2 in assay [4]; 2 in [5] (MRSA03); 2 in assay [6] (MRSA04). Further, the MMC/MIC in assay [7] is reported as 1. Besides, the minimum inhibitory concentration (MIC) in assay [1] was found to be 64 µg/mL (≈ 143 µM); in assay [2] (read-out: MIC), 16 µg/mL (≈ 35.7 µM); in assay [3] (read-out: MIC), 16 µg/mL (≈ 35.7 µM); in [4], 32 µg/mL (≈ 71.4 µM); in assay [5], 64 µg/mL (≈ 143 µM); in [6], 64 µg/mL (≈ 143 µM). In addition, the MIC is 32 µg/mL (≈ 71.4 µM) in assay [7] and 16 to 64 µg/mL (≈ 35.7 to 143 µM) in assay [10]. Further, the MFC in assay [2] (Candida albicans ATCC10231) and in assay [3] (Cryptococcus neoformans H99) was 16 µg/mL (≈ 35.7 µM) each time. Besides, in [8], the “DPPH free radical scavenging activity (EC50)” value is 3.71 ± 0.99^d μg/mL. The “Gallic acid equivalent antioxidant capacity (GEAC)” value in [9] is recorded as 118.71 ± 0.19^g μg/mL. In assay [10], the “antimicrobial activity class” value is reported as “moderate”.

For `COc1ccc(-c2coc3cc(O[C@@H]4O[C@H](CO)[C@@H](O)[C@H](O)[C@H]4O)ccc3c2=O)cc1` [compound 8, ononin], the MBC in [1] was 256 µg/mL (≈ 595 µM); in assay [4], 256 µg/mL (≈ 595 µM); in [5] (MRSA03), above 256 µg/mL; in [6] (MRSA04) it was above 256 µg/mL; in assay [7] it was 256 µg/mL (≈ 595 µM). Further, the MMC/MIC came out at 1 in assay [1], 4 in assay [4] and 2 in assay [7]. The MIC in [1] is 256 µg/mL (≈ 595 µM); in assay [2] (read-out: MIC) it was 128 µg/mL (≈ 297 µM); in [3] (read-out: MIC) it was 64 µg/mL (≈ 149 µM); in assay [4], 64 µg/mL (≈ 149 µM); in [5], 256 µg/mL (≈ 595 µM); in assay [6], 256 µg/mL (≈ 595 µM). The MIC in assay [7] was 128 µg/mL (≈ 297 µM); in assay [10] it was 64 to 256 µg/mL (≈ 149 to 595 µM). Besides, the MFC in [2] (Candida albicans ATCC10231) and in [3] (Cryptococcus neoformans H99) was above 256 µg/mL each time. The “DPPH free radical scavenging activity (EC50)” value in assay [8] was 38.96 ± 1.54^g μg/mL. In addition, the “Gallic acid equivalent antioxidant capacity (GEAC)” value in assay [9] is 57.43 ± 0.97^j μg/mL. Moreover, in [10], the “antimicrobial activity class” value was “moderate/low”.

Consider `O=C1O[C@H]([C@@H](O)CO)C(O)=C1O` [Vitamin C, reference compound], for which, in [8], the “DPPH free radical scavenging activity (EC50)” value is reported as 1.81 ± 0.19^h μg/mL.

Turning to `C[C@@H]1[C@H](O)[C@@H](C)/C=C/C=C/CC/C=C/C=C/C=C/C=C/C(O[C@H]2O[C@H](C)[C@@H](O)[C@H](N)[C@@H]2O)CC2O[C@](O)(CC(O)C(O)CCC(O)CC(O)CC(O)CC(=O)O[C@H]1C)CC(O)C2C(=O)O` (stereo partly shown) [nystatin, reference compound], the MMC came to 1 µg/mL in assay [2] (Candida albicans ATCC10231) and 2 µg/mL in [3] (Cryptococcus neoformans H99). In addition, the MMC/MIC in assay [2] (Candida albicans ATCC10231) and in [3] (Cryptococcus neoformans H99) was 1 in each case. The MIC in [2] is 1 µg/mL (≈ 1.08 µM); in assay [3], 2 µg/mL (≈ 2.16 µM). Further, in [10] (against all the tested microorganisms), the “MMC/MIC (microbicidal activities)” value was at most 4.

Source of the values: paper PMC8556085, “Antimicrobial and Antioxidant Secondary Metabolites from Trifolium baccarinii Chiov. (Fabaceae) and Their Mechanisms of Antibacterial Action” (BioMed Research International, 2021).
